Legend:
[1] = system: chick chorioallantoic membrane; assay: Chick chorioallantoic membrane (CAM) angiogenesis assay; format: in vivo; conditions: 48 hr
Method: The chick chorioallantoic or yolk sac membrane (CAM) assays for angiogenesis are important in vivo models of microvessel formation. […] Briefly, fertilized chick embryos with the yolk intact were removed from their shells on day 3 of development and incubated at 37° C.

[2] = system: MMP-2; assay: Gelatin zymography of HUVEC conditioned medium, MMP-2 gelatinase activity (basal); format: cell-based, human; conditions: 24 hr
Method: (§1) Human umbilical vein endothelial cells (H 930) were generously supplied by Dr. Tom Maciag, American Red Cross (Gaithersburg, Md., USA) and were used between passages 9 and 14 to avoid senescence. HUVECs were grown on fibronectin-coated tissue culture plastic (200 μg/150 mm dish) in complete medium (Medium 199 (M-199) containing 5 U/mL preservative-free heparin, 25.5 μg/mL ECGS, 10% fetal bovine serum and 100 U/mL penicillin, 100 μg/mL streptomycin, and 0.25 μg/mL fungizone).
Angiogenesis is characterized by a local degradation of subendothelial basement membrane by endothelial cell-secreted gelatinases. Aliquots of concentrated HUVEC conditioned medium from compound 1-treated and control cells were subjected to gelatin zymography, in order to test the effect of compound 1 on metalloproteinase production.
Gelatin zymography was carried out as described in Brown, et al., Cancer Research 50:6184-6191 (1990). HUVECs were seeded at 1.2×10^5 /cm^2 in 25 cm^2 fibronectin-coated tissue culture flasks in complete medium containing increasing concentrations of compound 1 (0.1-10 μM) or DMSO vehicle control. After 18 hr of culture, the complete medium was removed and the cells were washed once with serum-free M-199 supplemented with 5 μg/mL bovine insulin, 5 μg/mL human transferrin and 5 ng/mL sodium selenite (ITS). […]

[3] = system: HUVECs; assay: HUVEC vascular tube formation on Matrigel; format: cell-based, human; conditions: 24 hr
Method: as §1
After 12-24 hours, this rearrangement leads to the development of a network of tube-like structures that resemble capillaries. See, Kubota, et al., J. Cell Biol. 107:1589-1598 (1988).
Matrigel is a solution of murine basement membrane enriched for laminin and collagen type IV and has been used previously as a permissive substrate for vessel formation. See, Albini, et al., Int. J. Oncol. 1:723-730 (1992). The effect of compound 1 on in vitro tube formation was tested using this system. Individual wells of 24 well plates were coated with a 300 μL aliquot of concentrated Matrigel solution (10 mg/mL) and allowed to solidify for 1 hr at 37° C. Compound 1 (1.0, 10 or 20 μM) or DMSO control (0.1%) was added to Matrigel and to the culture media. HUVECs (50,000 cells/well) were incubated on the Matrigel in complete medium for 24 hr then evaluated by phase contrast microscopy and photographed.

[4] = system: bFGF receptor; assay: bFGF-induced tyrosine phosphorylation in HUVECs (phosphotyrosine immunoprecipitation and Western analysis); format: cell-based, human; conditions: 10 μM
Method: as §1
It exerts its activity through activation of the bFGF receptor kinase with subsequent autophosphorylation of its receptor as well as phosphorylation of other signaling proteins. See, Jaye, et al., Biochim. Biophys. Acta 1135:185-199 (1992). Phosphotyrosine immunoprecipitation and Western analysis were used to investigate the effect of compound 1 on bFGF-mediated tyrosine phosphorylation.
The following day, cells were exposed to bFGF, 10 ng/mL for 15 min at 37° C. Cells were quickly washed with cold DPBS, scraped from the plate and lysed with lysis buffer (50 mM Tris-HCl pH 7.6, 300 mM NaCl, 10 μg/mL aprotinin, 1 mM phenylmethylsulphonylfluoride (PMSF), 400 μM sodium orthovanadate, 400 μM EDTA, 100 mM sodium fluoride, 100 mM sodium pyrophosphate, and 0.5% Triton-X 100) for 1 hr on ice. The lysates were centrifuged at 4° C. at 1200×g for 15 minutes after which the supernatants were saved and protein concentration determined using bicinchoninic assay protein detection method. Aliquots of lysis protein ([…] per sample) were incubated with 10 μg of anti-phosphotyrosine monoclonal antibody, 4G10, pre-conjugated to protein A-sepharose beads for 1 hr at 4° C. The beads were washed three times with buffer containing 0.1% Triton X-100 and then the immunoprecipitated proteins were eluted with 2X Laemmli sample buffer and subjected to 4-12% gradient gel electrophoresis. Proteins were transferred electrically, blocked (7.5% glycine, 5% dry milk, 1% ovalbumin) for 30 min at room temperature, then washed (0.001% ovalbumin, 0.001% dry milk, 0.001% Tween-20 in phosphate-buffered saline (PBS)). […]

Structure (SMILES): NC(=O)c1nnn(Cc2cc(Cl)c(C(=O)c3ccc(Cl)cc3)c(Cl)c2)c1N [Compound 1, 5-amino-1-(4-(4-chlorobenzoyl)-3,5-dichlorobenzyl)1,2,3-triazole-4-carboxamide]
- % Inhibition (capillary formation in vivo) ([1]; 10 μM): 55%
- Eggs with avascular zones/total ([1]; 10 μM): 19/34
- embryos with large avascular zone ([1]; 10 μM): 55%
- % Inhibition (capillary formation in vivo) ([1]; 20 μM): 67%
- Eggs with avascular zones/total ([1]; 20 μM): 20/30
- embryos with large avascular zone ([1]; 20 μM): 67%
- angiogenesis inhibitory effect (in words) ([1]; 10 or 20 μM): dose-dependent
- inhibition of proMMP-2 and its activated form (in words) ([2]; 0.1-10 μM): dose-dependent inhibition
- inhibition at 10 µM ([2]; Homo sapiens, HUVEC, 10.0 μM, read-out: decrease in MMP-2 (densitometric analysis)): 50%
- inhibition of tube formation (in words) ([3]; 20 μM, similar when omitted from the Matrigel): more striking inhibition of tube formation
- appearance of multicellular tubes vs DMSO control (in words) ([3]; compound in Matrigel and media, similar when only in media): less extensive, thinner, foreshortened, and less cellular
- effect on bFGF-stimulated tyrosine phosphorylation (in words) ([4]; 18 hr, bFGF 10 ng/mL for final 15 minutes): inhibition of bFGF-stimulated phosphorylation
- effect on bFGF-stimulated tyrosine phosphorylation, including autophosphorylation of bFGF receptor (in words) ([4]; bFGF 10 ng/mL): blocked bFGF-stimulated tyrosine phosphorylation
- effect on basal tyrosine phosphorylation (in words) ([4]; no bFGF): Neither DMSO control (lane 1) or compound 1 (10 μM, lane 2) altered basal tyrosine phosphorylation
